Here are results for 6 compounds from patent US20100041760A1, “MONOARYL AMINOTETRALINES” (priority 2008, published 2010).

A word on the IC50: it is the point on the concentration scale where inhibition reaches its midpoint.

The target in one test is T1, human CRTH2 (Homo sapiens, UniProt Q9Y5Y4).
T1 sequence (Q9Y5Y4 1-395): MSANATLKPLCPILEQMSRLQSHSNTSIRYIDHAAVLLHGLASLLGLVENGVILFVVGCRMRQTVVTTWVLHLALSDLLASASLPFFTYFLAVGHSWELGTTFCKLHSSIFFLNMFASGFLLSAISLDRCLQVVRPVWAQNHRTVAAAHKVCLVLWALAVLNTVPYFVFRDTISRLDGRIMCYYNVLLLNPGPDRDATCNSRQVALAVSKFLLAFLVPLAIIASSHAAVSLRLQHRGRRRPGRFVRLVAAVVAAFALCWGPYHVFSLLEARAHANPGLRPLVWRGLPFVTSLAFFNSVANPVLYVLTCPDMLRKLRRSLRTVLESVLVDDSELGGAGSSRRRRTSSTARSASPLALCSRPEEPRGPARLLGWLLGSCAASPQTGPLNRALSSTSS
The experiment in a line: Calcium Flux Assay Using Fluorometric Imaging Plate Reader (FLIPR). It counts as cell-based. On the set-up: expressed in transfected cells; host or cells: CHO-K1 previously transfected with G-alpha 16. The note with it: CHO-K1 cells with G-alpha 16 and human CRTH2; inhibition of ligand (DK-PGD2) response; read-out: IC50 value in FLIPR calcium flux assay. The method, then:
CHO-K1 cells previously transfected with G-alpha 16 were subsequently transfected with the human CRTH2 receptor and the neomycin resistance gene. Following selection in 800 μg/mL G418 (geneticin), individual clones were assayed for their receptor expression based on staining with an anti human CRTH2 IgG, followed by assaying for their response to 13,14-dihydro-15-keto Prostaglandin D2 (DK-PDG2) (ligand) in the Ca^2+ Flux assay. Positive clones were then cloned by limiting dilution cloning. The transfected cells were cultured in Ham's F-12 medium supplemented with 10% fetal bovine serum, 2 mM glutamine, 100 U/mL penicillin/100 μg/mL streptomycin, 200 μg/mL hygromycin B, and 800 μg/mL G418 (geneticin). Cells were harvested with trypsin-EDTA (trypsin-ethylenediaminetetraacetic acid) and counted using ViaCount® reagent (from Guava Technologies, Inc. which contains two DNA-binding dyes that enable the reagent user to distinguish between viable and non-viable cells). The cell suspension volume was adjusted to 2.5×10^5 cells /mL with complete growth media. Aliquots of 50 μL were dispensed into BD Falcon™ 384 well black/clear microplates (from BD Biosciences, a division of Becton, Dickinson and Company) and the microplates were placed in a 37° C. CO2 incubator overnight. The following day, the microplates were used in the assay.
Loading Buffer containing dye (from the FLIPR® Calcium 3 Assay Kit from Molecular Devices, a division of MDS Analytical Technologies and MDS Inc.) was prepared by dissolving the contents of one bottle into 200 mL Hank's Balanced Salt Solution containing 20 mM HEPES (4-(2-hydroxyethyl)-1-piperazineethanesulfonic acid) and 2.5 mM probenecid. Growth media was removed from the cell plates and 25 μL of Hank's Balanced Salt Solution (HBSS) containing 20 mM HEPES, 0.05% BSA and 2.5 mM probenecid was added to each well followed by 25 μL of diluted dye using a Multidrop dispenser. The plates were then incubated for 1 hour at 37° C.
During the incubation, test compound plates were prepared by adding 90 μL of HBSS/20 mM HEPES/0.005% BSA buffer to the 2 μL of serial diluted compounds. To prepare serial diluted compounds, 20 mM stocks of compounds were dissolved in 100% DMSO. The compound dilution plate was set up as follows: well #1 received 5 μL of compound plus 10 μL of DMSO. Wells 2-10 received 10 μL of DMSO. 5 μL was mixed and transferred from well #1 into well #2. 1:3 serial dilutions were continued out 10 steps. 2 μL of diluted compound was transferred into duplicate wells of a 384 well “assay plate” and then 90 μL of buffer was added.
After incubation, both the cell and “assay plate” plates were brought to the fluorometric imaging plate reader (FLIPR®) and 20 μL of the diluted compounds were transferred to the cell plates by the FLIPR®. Plates were then incubated for 1 hour at room temperature. After the 1 hour incubation, plates were returned to the FLIPR® and 20 μL of 4.5× concentrated ligand was added to the cell plates. During the assay, fluorescence readings were taken simultaneously from all 384 wells of the cell plate every 1.5 seconds. Five readings were taken to establish a stable baseline, then 20 μL of sample was rapidly (30 μL/sec) and simultaneously added to each well of the cell plate. The fluorescence was continuously monitored before, during and after sample addition for a total elapsed time of 100 seconds. Responses (increase in peak fluorescence) in each well following agonist addition were determined. The initial fluorescence reading from each well, prior to ligand stimulation, was used as a zero baseline value for the data from that well. The responses were expressed as % inhibition of the buffer control. […]
A general note: Calcium flux is commonly read through the fluorescence of an indicator in the cells.
On to `CN([C@@H]1CCCc2c(OCC(=O)O)cccc21)S(=O)(=O)c1cc(F)cc(C(F)(F)F)c1` [Example 1-1, {(R)-5-[(3-fluoro-5-trifluoromethyl-benzenesulfonyl)-methyl-amino]-5,6,7,8-tetrahydro-naphthalen-1-yloxy}-acetic acid], for which the concentration for half-maximal inhibition (IC50) was determined as 1770 nM.

On to `CCN(CC)c1cc(C(F)(F)F)cc(S(=O)(=O)N(C)[C@@H]2CCCc3c(OCC(=O)O)cccc32)c1` [Example 4-2, {(R)-5-[(3-diethylamino-5-trifluoromethyl-benzenesulfonyl)-methyl-amino]-5,6,7,8-tetrahydro-naphthalen-1-yloxy}-acetic acid], for which the IC50 was 2010 nM.

With `CN([C@@H]1CCCc2c(OCC(=O)O)cccc21)S(=O)(=O)c1cc(OC2CCCC2)cc(C(F)(F)F)c1` [Example 9-3, {(R)-5-[(3-cyclopentyloxy-5-trifluoromethyl-benzenesulfonyl)-methyl-amino]-5,6,7,8-tetrahydro-naphthalen-1-yloxy}-acetic acid], the IC50 was determined as 462 nM.

As to `O=C(O)COc1cccc2c1CCC[C@H]2NS(=O)(=O)c1cc(F)cc(F)c1` [Example 10-5, [(R)-5-(3,5-difluoro-benzenesulfonylamino)-5,6,7,8-tetrahydro-naphthalen-1-yloxy]-acetic acid], the IC50 stood at 94 nM.

For `O=C(O)COc1cccc2c1CCC[C@H]2NS(=O)(=O)c1cc(F)cc(C(F)(F)F)c1` [Example 10-12, [(R)-5-(3-fluoro-5-trifluoromethyl-benzenesulfonylamino)-5,6,7,8-tetrahydro-naphthalen-1-yloxy]-acetic acid], the IC50 stood at 313 nM.

Staying with this test, now noted: CHO-K1 cells with G-alpha 16 and human CRTH2; unit inferred; read-out: IC50 value in FLIPR calcium flux assay (unit inferred).
As to `O=C(O)COc1cccc2c1CCC[C@H]2NS(=O)(=O)c1cc(Cl)cc(Cl)c1` [Example 10-1, [(R)-5-(3,5-dichloro-benzenesulfonylamino)-5,6,7,8-tetrahydro-naphthalen-1-yloxy]-acetic acid], the IC50 was roughly 3000 nM.
